For test [1], the target named is human platelets (Homo sapiens, UniProt P05106+P08514). Description: 125I-Fibrinogen binding to platelets. The settings on record: 0.1 μM 125I-fibrinogen, thrombin or activator peptide stimulus. Here is the method: Preparation of Human Platelets
Human blood was collected by venipuncture in tubes containing one-tenth volume of acid-citrate-dextrose as an anticoagulant. Platelet-rich plasma was prepared by centrifugation of the blood for 10 min at 500 g at room temperature. The platelet-rich plasma was decanted and one-tenth volume of acid-citrate-dextrose was added followed by centrifugation at 1000 g at room temperature for 10 min to sediment the platelets. The platelets were suspended in two ml modified Tyrode's buffer (2 M NaCl, 0.5 M dextrose, 0.2 M NaHCO3, 0.1 M KCl, 0.1 M MgCl2, 0.1 M NaH2 PO4 and 0.1 M HEPES, pH 7.3) containing 0.35% bovine serum albumin and then filtered on a 50 ml column of Sepharose 2B (Pharmacia) equilibrated with Tyrode's buffer. Finally, the platelets were counted in an automated hematology analyzer.
Human low solubility fibrinogen (Kabi) was prepared as described previously (Lipinska et al., 1974). For ^125 I labeling, fibrinogen (1 mg) was incubated with three Iodo-Beads (Pierce Chemical Co.) and 1 mCi of Na^125 I for 15 min after with ^125 I-fibrinogen was separated from free radioactivity by filtration through a PD-10 column (Pharmacia). The specific activity was approximately 1-5×10^17 CPM/mol fibrinogen.
Binding of fibrinogen to human platelets was performed as described by Plow and Ginsberg (1981). Binding assays contained, in a volume of 0.2 ml, 1-2×10^7 platelets, 0.1 μM ^125 I-fibrinogen, 2 mM CaCl2 and 0.1 U/ml thrombin or various concentrations of activator peptides as a stimulus. Incubations were carried out in 1.2 ml Eppendorf microcentrifuge tubes at room temperature for 30 min and then duplicate 75 μl aliquots were layered onto 0.4 ml of 20% sucrose in Tyrode's buffer containing 1% bovine serum albumin and platelets were sedimented by centrifugation at 10,000 g for 5 min in a Beckman microcentrifuge. Tips of the centrifuge tubes were amputated and bound ^125 I-fibrinogen was measured in a gamma counter (LKB/Pharmacia). Nonspecifically bound radioactivity was determined in incubations in which activators were excluded and these values were 1-5% of those obtained with thrombin activation.

The target of test [2] is T1, Purified GPIIbIIIa (Homo sapiens, UniProt P05106+P08514).
T1 construct: GPIIbIIIa was purified from human platelets; from tissue; host or cells: human platelets
Description: GPIIbIIIa (fibrinogen) enzyme-linked immunoassay (ELISA). The settings on record: purified human platelet GPIIbIIIa binding to immobilized fibrinogen; read-out: GPIIbIIIa (Fibrogen ELISA IC50). Here is the method:
GPIIbIIIa Enzyme-Linked Immunoassay
Low solubility fibrinogen, prepared as described by Lipinska et al., J. Lab. Clin. Med., 84, 509-516 (1974) (human, KABI) was immobolized at 5 μg/well on Immunolon 2-96 well plates (inculated overnight at 4° to bind to the wells). The wells were blocked with 0.5% bovine serum albumin in buffer A ([…] Tris-HCl, pH 7.5, 2 mM CaCl2, 120 mM […], and 0.02% NaN3) for two hours at room temperature. All subsequent steps were carried out at room temperature. The wells were washed three times with buffer A plus 0.5% Tween 20 (BioRad). Purified GPIIbIIIa (2 μg/well) plus synthetic peptides supplements at the indicated concentrations were conincubated for 90 to 120 min with immobilized fibrinogen. The wells were washed as above, then the anti-GPIIbIIIa monoclonal antibody, CD41a, was added to each well and incubated for 60 min. After another three washes, goat anti-mouse horseradish peroxidase conjugate was added to each well (60 min). The wells were washed three times with buffer A plus detergent, followed by two washes with buffer A minus detergent. The peroxidase substrate, 3,3',5,5'-tetramethylbenzidine (Kirkegaard and Perry Laboratories, Inc.) was added to the wells for color development. The reaction was stopped with 0.3N H2 SO4, and absorbances were measured at 450 mn using a microplate reader (Multiscan II, Flow-Titertek).
GPIIbIIIa was purified from human platelets as described by Fitzgerald, et al., Anal. Biochem., 151, 169-177 (1985), except that the final gel purification step was performed with an HW55 size exclusion column (Waters, Advanced Protein Purification System), instead of Sephacryl S-300. The protein, greater than 90% pure as assessed by SDS polyacrylamide gel electrophoresis, was stored at -80° C. in small aliquots.

In test [3] the target is Human platelet rich plasma (PRP) (Homo sapiens, UniProt P05106+P08514). The settings on record: read-out: Platelet Aggregation ADP Induced IC50, ADP (1 μM). Here is the method:
Platelet Aggregation In Vitro
Human platelet rich plasma (PRP) was prepared by centrifugation at 200×g for 10 min. at room temperature. Platelet poor plasma (PPP) was prepared by centrifugation at 2000×g for 10 min. PRP was exposed only to plastic laboratory ware. All experiments were completed within 3 hr of blood collection. Platelet aggregation was measured photometrically using a Chrono-log dual channel aggregometer (Chrono-log Corp., Haverstown, Pa. 19083). One hundred percent light transmission was defined with autologus PPP. Percent maximal change in light transmission was determined from PRP following addition of ADP (1 μM) or thrombin. […] MDL 102,530 was incubated with PRP (0.45 ml) for 30 sec prior to the addition of ADP or thrombin. Aggregation was measured in a total volume of 0.5 ml. Inhibitory responses were expressed s percent inhibition when compared to a control value. The concentration resulting in 50% inhibition of aggregation (IC50) was calculated by simple linear regression.

SMILES strings stand for the structures.

Usually IC50 stands for the concentration at which inhibition is half-maximal.

Sequence of human platelets (P08514 32-1039): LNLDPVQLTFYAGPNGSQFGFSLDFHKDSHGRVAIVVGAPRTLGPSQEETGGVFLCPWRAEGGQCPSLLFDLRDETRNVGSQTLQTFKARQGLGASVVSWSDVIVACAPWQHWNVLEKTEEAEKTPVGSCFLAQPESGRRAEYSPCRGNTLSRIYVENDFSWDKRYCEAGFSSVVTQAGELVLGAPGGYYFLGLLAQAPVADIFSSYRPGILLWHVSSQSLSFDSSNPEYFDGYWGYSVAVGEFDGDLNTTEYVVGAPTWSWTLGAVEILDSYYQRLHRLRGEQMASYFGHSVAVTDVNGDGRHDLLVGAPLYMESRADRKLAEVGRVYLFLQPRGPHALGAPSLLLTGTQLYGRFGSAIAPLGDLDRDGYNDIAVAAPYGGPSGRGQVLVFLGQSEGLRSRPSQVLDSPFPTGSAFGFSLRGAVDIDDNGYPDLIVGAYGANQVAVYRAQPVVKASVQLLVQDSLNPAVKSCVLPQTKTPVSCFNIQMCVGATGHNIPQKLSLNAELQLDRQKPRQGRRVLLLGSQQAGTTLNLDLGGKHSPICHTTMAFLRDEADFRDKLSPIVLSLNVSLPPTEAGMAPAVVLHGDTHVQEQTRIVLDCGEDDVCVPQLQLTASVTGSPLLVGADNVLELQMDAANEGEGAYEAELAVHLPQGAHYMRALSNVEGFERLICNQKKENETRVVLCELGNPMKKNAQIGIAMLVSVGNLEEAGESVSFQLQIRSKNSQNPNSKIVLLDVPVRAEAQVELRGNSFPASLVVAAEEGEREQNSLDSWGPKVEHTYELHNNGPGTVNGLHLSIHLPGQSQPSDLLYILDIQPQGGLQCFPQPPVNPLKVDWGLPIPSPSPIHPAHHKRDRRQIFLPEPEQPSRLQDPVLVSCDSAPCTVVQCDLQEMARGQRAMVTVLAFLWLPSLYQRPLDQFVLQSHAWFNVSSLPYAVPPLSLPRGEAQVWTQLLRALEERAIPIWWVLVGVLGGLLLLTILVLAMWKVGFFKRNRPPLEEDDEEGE
Sequence of human platelets (P05106 27-788): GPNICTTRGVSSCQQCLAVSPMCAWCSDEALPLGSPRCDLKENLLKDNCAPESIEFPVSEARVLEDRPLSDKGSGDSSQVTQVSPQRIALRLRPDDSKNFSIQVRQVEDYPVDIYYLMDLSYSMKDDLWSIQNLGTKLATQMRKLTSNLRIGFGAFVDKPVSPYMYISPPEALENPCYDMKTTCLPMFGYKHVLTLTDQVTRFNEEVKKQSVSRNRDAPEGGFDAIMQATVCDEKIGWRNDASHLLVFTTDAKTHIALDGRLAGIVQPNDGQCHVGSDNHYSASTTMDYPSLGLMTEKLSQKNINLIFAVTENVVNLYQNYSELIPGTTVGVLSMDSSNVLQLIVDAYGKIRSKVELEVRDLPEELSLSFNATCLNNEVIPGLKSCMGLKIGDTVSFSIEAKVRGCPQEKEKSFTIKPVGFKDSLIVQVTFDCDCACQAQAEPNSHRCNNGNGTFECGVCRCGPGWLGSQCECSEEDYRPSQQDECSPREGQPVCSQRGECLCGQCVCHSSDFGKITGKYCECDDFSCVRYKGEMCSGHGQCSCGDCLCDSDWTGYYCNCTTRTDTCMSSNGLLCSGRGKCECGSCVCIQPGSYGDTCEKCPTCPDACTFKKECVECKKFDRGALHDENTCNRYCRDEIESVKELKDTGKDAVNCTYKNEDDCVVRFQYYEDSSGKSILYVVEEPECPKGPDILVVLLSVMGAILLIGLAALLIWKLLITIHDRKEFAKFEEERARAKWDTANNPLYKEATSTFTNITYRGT
T1 sequence (P08514 32-887 limits assumed): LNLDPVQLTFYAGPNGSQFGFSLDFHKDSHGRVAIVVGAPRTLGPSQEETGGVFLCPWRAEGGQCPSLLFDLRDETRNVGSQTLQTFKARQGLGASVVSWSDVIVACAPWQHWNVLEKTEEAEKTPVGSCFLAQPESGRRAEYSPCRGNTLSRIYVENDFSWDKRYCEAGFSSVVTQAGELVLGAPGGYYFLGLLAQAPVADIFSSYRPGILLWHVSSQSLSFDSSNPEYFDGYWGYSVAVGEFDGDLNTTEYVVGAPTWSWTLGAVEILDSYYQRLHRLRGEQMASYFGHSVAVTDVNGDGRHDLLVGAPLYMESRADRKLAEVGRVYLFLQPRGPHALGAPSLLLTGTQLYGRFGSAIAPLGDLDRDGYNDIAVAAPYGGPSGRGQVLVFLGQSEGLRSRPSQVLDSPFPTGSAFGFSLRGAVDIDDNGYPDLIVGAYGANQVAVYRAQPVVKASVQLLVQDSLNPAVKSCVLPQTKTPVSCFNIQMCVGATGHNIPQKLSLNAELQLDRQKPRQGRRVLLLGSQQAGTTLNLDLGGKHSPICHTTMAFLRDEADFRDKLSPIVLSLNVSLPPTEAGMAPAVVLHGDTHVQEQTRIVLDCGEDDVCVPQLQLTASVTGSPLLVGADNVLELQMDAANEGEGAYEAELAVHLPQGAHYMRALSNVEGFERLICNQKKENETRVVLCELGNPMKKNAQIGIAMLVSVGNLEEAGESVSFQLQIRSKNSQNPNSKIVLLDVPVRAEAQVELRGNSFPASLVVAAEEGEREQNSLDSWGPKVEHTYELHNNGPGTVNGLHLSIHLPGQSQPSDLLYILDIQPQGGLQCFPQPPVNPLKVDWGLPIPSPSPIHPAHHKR
T1 sequence (P08514 891-1039 partner limits assumed): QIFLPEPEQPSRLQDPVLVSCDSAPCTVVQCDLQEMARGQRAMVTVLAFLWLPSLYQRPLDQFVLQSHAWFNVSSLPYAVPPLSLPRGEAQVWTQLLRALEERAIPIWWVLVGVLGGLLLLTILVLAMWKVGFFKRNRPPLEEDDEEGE
T1 sequence (P05106 27-788): as the sequence (P05106 27-788) above
Sequence of Human platelet rich plasma (PRP) (P08514 32-1039): as the sequence (P08514 32-1039) above
Sequence of Human platelet rich plasma (PRP) (P05106 27-788): as the sequence (P05106 27-788) above

As for `C[C@H]1CN(C(=O)CCN)[C@@H](CCCNC(=N)N)C(=O)NCC(=O)N[C@@H](CC(=O)O)C(=O)N[C@H](C(=O)NCc2ccccc2)CCC(=O)N1` [III], the IC50 was 2400 nM in test [1], 3000 nM in test [2] and 49200 nM in test [3].
On to `C[C@H]1CN[C@@H](CCCNC(=N)N)C(=O)NCC(=O)N[C@@H](CC(=O)O)C(=O)N[C@H](C(=O)NCc2ccccc2)CCC(=O)N1` [I], for which the IC50 in test [1] stood at 2400 nM; in test [2] it was 200 nM.
Regarding `C[C@H]1CN(CCCc2ccccc2)[C@@H](CCCNC(=N)N)C(=O)NCC(=O)N[C@@H](CC(=O)O)C(=O)N[C@H](C(=O)NCc2ccccc2)CCC(=O)N1` [IV], the IC50 came out at 270 nM in test [1], 300 nM in test [2] and 6400 nM in test [3].
Regarding `C[C@H]1CN(CCCC(=O)O)[C@@H](CCCNC(=N)N)C(=O)NCC(=O)N[C@@H](CC(=O)O)C(=O)N[C@H](C(=O)NCc2ccccc2)CCC(=O)N1` [II], the 50% inhibitory concentration (IC50) in test [1] turned out to be 1200 nM; in test [2], 540 nM.

The record behind these values is patent US6107275A, “Cyclic Antiplatelet peptides with pseudo-bond” (Merrell Pharmaceuticals Inc., priority 1997, dated 2000).
